According to patent US7989165B2, “Tape stripping methods for analysis of skin disease and pathological skin state” (DermTech International, priority 2004, dated 2011):
Several values for one entry are separate records, joined by “and”; a condition that tells them apart may be missing. Equal values may be shown once.

Key:
Krt-17 mRNA = assay: RT-PCR of keratin-17 mRNA relative to β-actin in SLS-irritated and control skin (tape and biopsy); format: in vivo, human; design: key to ΔCt,Krt-17, Tape, SLS / ΔCt,Krt-17, Biopsy, SLS: ΔCt: keratin mRNA Ct normalized to β-actin Ct in same sample; settings: for ΔCt,Krt-17, Biopsy, SLS / ΔCt,Krt-17, Tape, SLS: 1% SLS occlusive patch 24 hours, mid-back, relative to β-actin, per subject 1-10 and Average; for ΔCt,Krt-17, Biopsy, SLS / Fold Increase Krt-17/βactin mRNA ratio vs. normal, Biopsy, SLS: biopsy RNA; for ΔCt,Krt-17, Biopsy, SLS / ΔCt,Krt-17, Tape, SLS / Fold Increase Krt-17/βactin mRNA ratio vs. normal, Biopsy, SLS / Fold Increase Krt-17/βactin mRNA ratio vs. normal, Tape, SLS: sulfate; for ΔCt,Krt-17, Tape, SLS / Fold Increase Krt-17/βactin mRNA ratio vs. normal, Tape, SLS: tape-stripped RNA; for Fold Increase Krt-17/βactin mRNA ratio vs. normal, Biopsy, SLS / Fold Increase Krt-17/βactin mRNA ratio vs. normal, Tape, SLS: 1% SLS patch 24 hours vs untreated skin, per subject and Average
Text: (§1) The samples analyzed in this study are those described in the protocol performed by Wong et al. (Wong, Tran et al. 2004). […] Patches were removed and equivalent skin sites were biopsied and tape stripped as described in the Examples above. As an additional control, normal skin was also biopsied and tape stripped. Samples were processed for total RNA and assayed for keratin-10, keratin-16, keratin-17 and β-actin mRNA. The keratin mRNAs were normalized to β-actin mRNA in each sample. The semi-quantitative RT-PCR assay has been previously described (Wong, Tran et al. 2004).

Krt-10 mRNA = assay: RT-PCR of keratin-10 mRNA relative to β-actin in SLS-irritated and control skin (tape and biopsy); format: in vivo, human; design: key to ΔCt,Krt-10, Tape, SLS / ΔCt,Krt-10, Biopsy, SLS: ΔCt: keratin mRNA Ct normalized to β-actin Ct in same sample; settings: sulfate; for ΔCt,Krt-10, Biopsy, SLS / ΔCt,Krt-10, Tape, SLS: 1% SLS occlusive patch 24 hours, mid-back, relative to β-actin, per subject 1-10 and Average; for ΔCt,Krt-10, Biopsy, SLS / Fold Increase Krt-10/β-actin mRNA vs. normal, Biopsy, SLS: biopsy RNA
Text: as §1

For `CCCCCCCCCCCCOS(=O)(=O)[O-].[Na+]` [SLS, sodium lauryl sulfate], the “ΔCt,Krt-17, Biopsy, SLS” value (Krt-17 mRNA) was 0.71 and −2.29 and −2.5 and 1.13 and −1.97 and −1.63 and −2.91 and −1.75 and −1.86 and −0.11, the “ΔCt,Krt-17, Biopsy, SLS” value (Krt-17 mRNA; mean) was −1.32 and the “ΔCt,Krt-17, Tape, SLS” value (Krt-17 mRNA) was −5.12 and 1.64 and 1.5 and −4.87 and −1.79 and 1.11 and −1.84 and 1.38 and 0.21 and −2.12. The “ΔCt,Krt-17, Tape, SLS” value (Krt-17 mRNA; mean) was −0.99, the “Fold Increase Krt-17/βactin mRNA ratio vs. normal, Biopsy, SLS” value (Krt-17 mRNA) was 13.31 fold and 94.54 fold and 44.95 fold and 4.51 fold and 27.19 fold and 15.44 fold and 459.45 fold and 195.94 fold and 48.35 fold and 41.13 fold and the “Fold Increase Krt-17/βactin mRNA ratio vs. normal, Biopsy, SLS” value (Krt-17 mRNA; mean) was 42.52 fold. The “Fold Increase Krt-17/βactin mRNA ratio vs. normal, Tape, SLS” value (Krt-17 mRNA) was 1.67 fold and 0.02 fold (2×) and 0.01 fold and 0.17 fold and 0.05 fold and 0.04 fold and 0.5 fold, the “Fold Increase Krt-17/βactin mRNA ratio vs. normal, Tape, SLS” value (Krt-17 mRNA; mean) was 0.12 fold and the “average fold-increase of K17, biopsy” value (Krt-17 mRNA; SLS-treated skin vs untreated) was 42 fold. For the same molecule, the “decrease of K17/actin mRNA ratio, tape” value (Krt-17 mRNA; SLS-treated skin vs untreated) was 8 fold, the “ΔCt,Krt-10, Biopsy, SLS” value (Krt-10 mRNA) was −4.28 and −0.24 and −3.09 and −6.35 and −4 and 0.4 and −2 and −2.7 and 1.91 and −5.97 and the “ΔCt,Krt-10, Biopsy, SLS” value (Krt-10 mRNA; mean) was −2.63. The “ΔCt,Krt-10, Tape, SLS” value (Krt-10 mRNA; tape-stripped RNA) was −2.76 and 3.68 and 8.19 and −0.3 and 0.93 and 5.1 and 1.03 and 4.17 and 3.81 and −0.81, the “ΔCt,Krt-10, Tape, SLS” value (Krt-10 mRNA; tape-stripped RNA, mean) was 2.30 and the “Fold Increase Krt-10/β-actin mRNA vs. normal, Biopsy, SLS” value (Krt-10 mRNA; 1% SLS patch 24 hours vs untreated skin, per subject and Average) was 0.15 fold and 0.01 fold (2×) and 0.06 fold (2×) and 0.65 fold and 0.1 fold and 0.03 fold and <0.001 fold and 0.57 fold. The “Fold Increase Krt-10/β-actin mRNA vs. normal, Biopsy, SLS” value (Krt-10 mRNA; 1% SLS patch 24 hours vs untreated skin, per subject and Average, mean) was 0.05 fold and the “Fold Increase Krt-10/β-actin mRNA vs. normal, Tape, SLS” value (Krt-10 mRNA; 1% SLS patch 24 hours vs untreated skin, tape-stripped RNA, per subject and Average) was 1.55 fold and 0.03 fold and <0.001 fold and 0.01 fold (3×) and 0.31 fold and 1.22 fold.
